This is an account of results in US8541588B2, “Sulfonamide derivatives” (Pfizer Limited, priority 2009, dated 2013).

The target in the first assay is T1, Nav1.7 (or SCN9A) channel; HEK cells stably transfected with hSCN9A (Homo sapiens, UniProt Q15858).
T1 construct: expressed in transfected cells
T1 sequence (Q15858 whole entry): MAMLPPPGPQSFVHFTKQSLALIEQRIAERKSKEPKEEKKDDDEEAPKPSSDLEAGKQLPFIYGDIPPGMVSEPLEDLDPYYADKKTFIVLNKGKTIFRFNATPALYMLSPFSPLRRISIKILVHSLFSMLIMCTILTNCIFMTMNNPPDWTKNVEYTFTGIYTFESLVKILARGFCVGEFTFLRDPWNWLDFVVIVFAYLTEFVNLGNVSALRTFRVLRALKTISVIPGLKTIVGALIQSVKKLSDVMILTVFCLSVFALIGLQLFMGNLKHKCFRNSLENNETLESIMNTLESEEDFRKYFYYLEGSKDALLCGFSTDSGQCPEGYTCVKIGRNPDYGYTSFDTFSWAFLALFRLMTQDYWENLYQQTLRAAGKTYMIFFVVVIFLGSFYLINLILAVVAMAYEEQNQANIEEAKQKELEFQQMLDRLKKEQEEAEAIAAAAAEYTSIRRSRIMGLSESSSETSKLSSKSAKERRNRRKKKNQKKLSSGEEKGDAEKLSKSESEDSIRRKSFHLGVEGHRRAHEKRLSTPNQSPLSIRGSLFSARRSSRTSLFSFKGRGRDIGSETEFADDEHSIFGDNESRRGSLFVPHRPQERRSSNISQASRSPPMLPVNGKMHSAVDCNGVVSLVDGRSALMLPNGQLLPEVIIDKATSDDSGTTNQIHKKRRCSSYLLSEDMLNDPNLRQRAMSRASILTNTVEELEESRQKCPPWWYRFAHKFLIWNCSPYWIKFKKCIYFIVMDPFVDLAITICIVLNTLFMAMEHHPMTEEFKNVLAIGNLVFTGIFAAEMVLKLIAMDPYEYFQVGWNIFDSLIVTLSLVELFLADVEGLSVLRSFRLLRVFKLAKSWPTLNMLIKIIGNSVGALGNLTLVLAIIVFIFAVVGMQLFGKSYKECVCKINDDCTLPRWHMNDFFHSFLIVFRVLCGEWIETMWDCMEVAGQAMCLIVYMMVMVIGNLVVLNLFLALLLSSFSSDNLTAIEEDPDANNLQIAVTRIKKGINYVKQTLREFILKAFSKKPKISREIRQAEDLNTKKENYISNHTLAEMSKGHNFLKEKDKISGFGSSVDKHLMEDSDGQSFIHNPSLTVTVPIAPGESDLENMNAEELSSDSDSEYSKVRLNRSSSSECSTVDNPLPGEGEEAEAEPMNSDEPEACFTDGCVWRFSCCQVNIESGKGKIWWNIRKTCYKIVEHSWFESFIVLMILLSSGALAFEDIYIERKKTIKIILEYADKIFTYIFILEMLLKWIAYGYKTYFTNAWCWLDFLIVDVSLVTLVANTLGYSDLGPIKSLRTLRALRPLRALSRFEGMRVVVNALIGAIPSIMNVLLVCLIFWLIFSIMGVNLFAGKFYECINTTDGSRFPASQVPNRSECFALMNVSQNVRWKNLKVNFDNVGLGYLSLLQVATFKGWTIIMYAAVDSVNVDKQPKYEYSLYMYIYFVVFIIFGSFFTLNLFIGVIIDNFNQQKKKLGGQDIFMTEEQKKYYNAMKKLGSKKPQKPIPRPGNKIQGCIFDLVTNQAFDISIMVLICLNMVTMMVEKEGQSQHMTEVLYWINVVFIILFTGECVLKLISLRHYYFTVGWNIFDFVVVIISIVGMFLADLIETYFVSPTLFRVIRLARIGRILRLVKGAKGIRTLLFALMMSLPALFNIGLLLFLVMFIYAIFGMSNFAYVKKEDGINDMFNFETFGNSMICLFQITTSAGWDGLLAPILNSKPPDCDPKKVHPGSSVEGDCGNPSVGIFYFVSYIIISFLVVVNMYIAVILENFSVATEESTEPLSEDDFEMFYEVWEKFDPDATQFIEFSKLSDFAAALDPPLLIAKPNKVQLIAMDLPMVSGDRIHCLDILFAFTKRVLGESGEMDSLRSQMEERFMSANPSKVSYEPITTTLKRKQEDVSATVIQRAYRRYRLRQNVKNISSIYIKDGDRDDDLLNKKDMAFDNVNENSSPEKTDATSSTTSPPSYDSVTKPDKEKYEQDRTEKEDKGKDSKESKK
The assay is described as follows: Nav1.7 block, PatchXpress 7000 automated whole-cell voltage clamp, estimated IC50 (EIC50). The class given is cell-based. To be noted: PatchXpress platform; hSCN9A HEK cells held at V1/2 of inactivation; estimated IC50.
The IC50 is the concentration at which inhibition is half-maximal. On to `Cc1n[nH]cc1-c1ccccc1Oc1ccc(S(=O)(=O)Nc2nccs2)cc1C#N` [Example 200, 3-cyano-4-(2-(3-methyl-1H-pyrazol-4-yl)phenoxy)-N-(thiazol-2-yl)benzenesulfonamide], for which the IC50 is 100 nM.

On to `N#Cc1cc(S(=O)(=O)Nc2nncs2)ccc1Oc1ccccc1-c1ccccc1` [Example 104, 4-(biphenyl-2-yloxy)-3-cyano-N-1,3,4-thiadiazol-2-ylbenzenesulfonamide], for which the IC50 was 2250 nM.

As for `Cc1cc(CN2CCCC2)cc(C)c1Oc1ccc(S(=O)(=O)Nc2nccs2)cc1F` [Example 123, 4-[2,6-dimethyl-4-(pyrrolidin-1-ylmethyl)phenoxy]-3-fluoro-N-1,3-thiazol-2-ylbenzenesulfonamide], the IC50 is 9200 nM.

As for `N#Cc1cc(S(=O)(=O)Nc2ncns2)ccc1Oc1cnc(N)nc1-c1ccccc1` [Example 23, 4-[(2-amino-4-phenylpyrimidin-5-yl)oxy]-3-cyano-N-1,2,4-thiadiazol-5-ylbenzenesulfonamide], the IC50 is 2030 nM.

In the case of `O=S(=O)(Nc1ncns1)c1cc(Cl)c(Oc2ccccc2-c2ccccc2)cc1F` [Example 270, 4-(biphenyl-2-yloxy)-5-chloro-2-fluoro-N-1,2,4-thiadiazol-5-ylbenzenesulfonamide], the IC50 was 30 nM.

Regarding `N#Cc1cc(S(=O)(=O)Nc2cncs2)ccc1Oc1ccccc1-c1ccccc1` [Example 105, 4-(biphenyl-2-yloxy)-3-cyano-N-1,3-thiazol-5-ylbenzenesulfonamide], the IC50 is 2670 nM.

For the molecule `N#Cc1cc(S(=O)(=O)Nc2ncns2)ccc1Oc1cc(C(F)(F)F)nn1-c1ccc(F)c(F)c1` [Example 59, 3-cyano-4-{[1-(3,4-difluorophenyl)-3-(trifluoromethyl)-1H-pyrazol-5-yl]oxy}-N-1,2,4-thiadiazol-5-ylbenzenesulfonamide], the IC50 is 2280 nM.

Consider `N#Cc1cc(S(=O)(=O)Nc2ncns2)ccc1Oc1ccccc1-c1ccc(OC(F)(F)F)cc1` [Example 57, 3-cyano-N-1,2,4-thiadiazol-5-yl-4-{[4′-(trifluoromethoxy)biphenyl-2-yl]oxy}benzenesulfonamide], for which the IC50 is 660 nM.

Still in this assay, the particulars now being: estimated IC50; hSCN9A HEK cells, PatchXpress platform; Examples 283-814.
For `N#Cc1cc(S(=O)(=O)Nc2ncc(Cl)s2)ccc1Oc1ccc(Cl)cc1-c1cn[nH]c1N` [Example 583, 4-[2-(5-Amino-1H-pyrazol-4-yl)-4-chlorophenoxy]-N-(5-chloro-1,3-thiazol-2-yl)-3-cyanobenzenesulfonamide], the IC50 is 13 nM.

Take `COc1ccc(-c2ccnn2C)c(Oc2ccc(S(=O)(=O)Nc3nccs3)cc2C#N)c1` [Example 541, 3-cyano-4-[5-methoxy-2-(1-methyl-1H-pyrazol-5-yl)phenoxy]-N-1,3-thiazol-2-ylbenzenesulfonamide]: the IC50 is 140 nM.

As to `Cc1[nH]ncc1-c1cc(Cl)ccc1Oc1cc(F)c(S(=O)(=O)Nc2ncns2)cc1F` [Example 635, 4-[4-chloro-2-(5-methyl-1H-pyrazol-4-yl)phenoxy]-2,5-difluoro-N-1,2,4-thiadiazol-5-ylbenzenesulfonamide], the half-maximal inhibitory concentration (IC50) was 6.3 nM.

Turning to `CC(=O)N1CC(c2cc(Cl)ccc2Oc2ccc(S(=O)(=O)Nc3nccs3)cc2C#N)C1` [Example 640, 4-[2-(1-acetylazetidin-3-yl)-4-chlorophenoxy]-3-cyano-N-1,3-thiazol-2-ylbenzenesulfonamide], the IC50 was 1000 nM.

Turning to `Nc1cc(-c2cc(F)ccc2Oc2cc(F)c(S(=O)(=O)Nc3ncns3)cc2F)ccn1` [Example 634, 4-[2-(2-aminopyridin-4-yl)-4-fluorophenoxy]-2,5-difluoro-N-1,2,4-thiadiazol-5-ylbenzenesulfonamide], the IC50 was 11 nM.

Take `Cn1nccc1-c1cc(CCCO)ccc1Oc1ccc(S(=O)(=O)Nc2ncc(F)s2)cc1C#N` [Example 715, 3-cyano-N-(5-fluoro-1,3-thiazol-2-yl)-4-[4-(3-hydroxypropyl)-2-(1-methyl-1H-pyrazol-5-yl)phenoxy]benzenesulfonamide]: the IC50 was 210 nM.

Regarding `COc1cccc(-c2ccc(Oc3ccc(S(=O)(=O)Nc4nccs4)cc3C#N)cc2)n1` [Example 451, 3-cyano-4-[4-(6-methoxypyridin-2-yl)phenoxy]-N-1,3-thiazol-2-ylbenzenesulfonamide], the IC50 is >1000 nM.

With `Cn1nc(C(F)(F)F)cc1-c1ccc(Oc2ccc(S(=O)(=O)Nc3ncc(F)s3)cc2C#N)c(Cl)c1` [Example 720, 4-{2-chloro-4-[1-methyl-3-(trifluoromethyl)-1H-pyrazol-5-yl]phenoxy}-3-cyano-N-(5-fluoro-1,3-thiazol-2-yl)benzenesulfonamide], the IC50 is 56 nM.

As for `Cn1nccc1-c1cc(Cl)ccc1Oc1cc(F)c(S(=O)(=O)Nc2nncs2)cc1F` [Example 301, 4-[4-chloro-2-(1-methyl-1H-pyrazol-5-yl)phenoxy]-2,5-difluoro-N-1,3,4-thiadiazol-2-ylbenzenesulfonamide], the half-maximal inhibitory concentration (IC50) was 280 nM.

For `N#Cc1cc(S(=O)(=O)Nc2nccs2)ccc1Oc1ccc(OC(F)(F)F)cc1-c1cn[nH]c1` [Example 704, 3-cyano-4-[2-(1H-pyrazol-4-yl)-4-(trifluoromethoxy)phenoxy]-N-1,3-thiazol-2-ylbenzenesulfonamide], the IC50 was 11 nM.

As to `Nc1cc(-c2cc(C(F)(F)F)ccc2Oc2cc(F)c(S(=O)(=O)Nc3ncns3)cc2F)ccn1` [Example 556, 4-[2-(2-aminopyridin-4-yl)-4-(trifluoromethyl)phenoxy]-2,5-difluoro-N-1,2,4-thiadiazol-5-ylbenzenesulfonamide], the IC50 was 2.3 nM.

For `N#Cc1cc(S(=O)(=O)Nc2nccs2)ccc1Oc1cccc(-n2cccn2)c1` [Example 319, 3-cyano-4-[3-(1H-pyrazol-1-yl)phenoxy]-N-1,3-thiazol-2-ylbenzenesulfonamide], the IC50 was 2500 nM.

Regarding `Cn1nccc1-c1cc(C#N)ccc1Oc1cc(F)c(S(=O)(=O)Nc2ncc(Cl)s2)cc1F` [Example 441, N-(5-chloro-1,3-thiazol-2-yl)-4-[4-cyano-2-(1-methyl-1H-pyrazol-5-yl)phenoxy]-2,5-difluorobenzenesulfonamide], the IC50 was 960 nM.

In the case of `O=S(=O)(Nc1ccncn1)c1ccc(Oc2ccc(Cl)cc2C2CCNCC2)c(Cl)c1` [Example 744, 3-chloro-4-(4-chloro-2-piperidin-4-ylphenoxy)-N-pyrimidin-4-ylbenzenesulfonamide], the IC50 was 170 nM.

Regarding `O=S(=O)(Nc1nccs1)c1ccc(Oc2ccc(Cl)cc2-c2ccn[nH]2)c(F)c1` [Example 308, 4-[4-Chloro-2-(1H-pyrazol-5-yl)phenoxy]-3-fluoro-N-1,3-thiazol-2-ylbenzenesulfonamide], the IC50 was 980 nM.

`CCn1nc(C(F)(F)F)cc1-c1ccc(Oc2cc(F)c(S(=O)(=O)Nc3nccs3)cc2Cl)cc1` [Example 305, 5-chloro-4-{4-[1-ethyl-3-(trifluoromethyl)-1H-pyrazol-5-yl]phenoxy}-2-fluoro-N-1,3-thiazol-2-ylbenzenesulfonamide]: the IC50 was 97 nM.

Take `CC(C)n1cc(-c2cc(Cl)ccc2Oc2ccc(S(=O)(=O)Nc3ncns3)cc2C#N)cn1` [Example 283, 4-[4-chloro-2-(1-isopropyl-1H-pyrazol-4-yl)phenoxy]-3-cyano-N-1,2,4-thiadiazol-5-ylbenzenesulfonamide]: the concentration for half-maximal inhibition (IC50) is 580 nM.

`CN1CCN(c2ccc(Oc3ccc(S(=O)(=O)Nc4nccs4)cc3C#N)cc2)C1=O` [Example 487, 3-cyano-4-[4-(3-methyl-2-oxoimidazolidin-1-yl)phenoxy]-N-1,3-thiazol-2-ylbenzenesulfonamide]: the IC50 is >1000 nM.

For the molecule `Nc1cccc(-c2cc(C(F)(F)F)ccc2Oc2cc(F)c(S(=O)(=O)Nc3ncns3)cc2F)n1` [Example 555, 4-[2-(6-aminopyridin-2-yl)-4-(trifluoromethyl)phenoxy]-2,5-difluoro-N-1,2,4-thiadiazol-5-ylbenzenesulfonamide], the IC50 is 14 nM.

With `CN1CCC(c2cc(Cl)ccc2Oc2cc(F)c(S(=O)(=O)Nc3ncns3)cc2F)CC1` [Example 734, 4-[4-chloro-2-(1-methylpiperidin-4-yl)phenoxy]-2,5-difluoro-N-1,2,4-thiadiazol-5-ylbenzenesulfonamide], the concentration for half-maximal inhibition (IC50) was 53 nM.

In the case of `N#Cc1cc(S(=O)(=O)Nc2cscn2)ccc1Oc1ccc(Cl)cc1-n1cnc(C(F)(F)F)c1` [Example 397, 4-{4-chloro-2-[4-(trifluoromethyl)-1H-imidazol-1-yl]phenoxy}-3-cyano-N-1,3-thiazol-4-ylbenzenesulfonamide], the half-maximal inhibitory concentration (IC50) was >1000 nM.

The same assay, now with this note: estimated IC50; hSCN9A HEK cells, PatchXpress platform; Examples 815-1040.
For the molecule `N#Cc1cc(S(=O)(=O)Nc2ncns2)ccc1Oc1ccc(Cl)cc1C1CNC1` [Example 906, 4-(2-azetidin-3-yl-4-chlorophenoxy)-3-cyano-N-1,2,4-thiadiazol-5-ylbenzenesulfonamide], the IC50 was 57 nM.

On to `O=C(c1cccc(-c2cc(Cl)ccc2Oc2ccc(S(=O)(=O)Nc3ccncn3)cc2Cl)c1)N1CCC1` [Example 858, 4-{[3′-(azetidin-1-ylcarbonyl)-5-chlorobiphenyl-2-yl]oxy}-3-chloro-N-pyrimidin-4-ylbenzenesulfonamide], for which the IC50 is 17 nM.

Consider `O=S(=O)(Nc1nncs1)c1cc(Cl)c(Oc2cc(OC(F)(F)F)c(F)cc2-c2ccnnc2)cc1F` [Example 965, 5-chloro-2-fluoro-4-[4-fluoro-2-pyridazin-4-yl-5-(trifluoromethoxy)phenoxy]-N-1,3,4-thiadiazol-2-ylbenzenesulfonamide], for which the IC50 is 25 nM.

On to `Cc1nonc1NS(=O)(=O)c1ccc(Oc2ccc(Cl)cc2-c2ccnn2C)c(C#N)c1` [Example 907, 4-[4-chloro-2-(1-methyl-1H-pyrazol-5-yl)phenoxy]-3-cyano-N-(4-methyl-1,2,5-oxadiazol-3-yl)benzenesulfonamide], for which the concentration for half-maximal inhibition (IC50) was >10000 nM.

As for `N#Cc1cc(S(=O)(=O)Nc2ncns2)ccc1Oc1cc(F)c(Cl)cc1-c1ccnnc1` [Example 924, 4-(4-chloro-5-fluoro-2-pyridazin-4-ylphenoxy)-3-cyano-N-1,2,4-thiadiazol-5-ylbenzenesulfonamide], the IC50 is 19 nM.
